From PubChem BioAssay (NCI)
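Cultured in 96-well plates, cells were exposed to test compound for 48 hours across five concentrations. At the TGI there is no net growth.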

Assays:
Experiment in all cases: growth of human tumour cells (NCI), 48 h
786-0 renal = tested on: 786-0 renal
A498 renal = tested on: A498 renal
A549 NSCLC = tested on: A549 NSCLC
ACHN renal = tested on: ACHN renal
CAKI-1 renal = tested on: CAKI-1 renal
CCRF-CEM leukemia = tested on: CCRF-CEM leukemia
COLO 205 colon = tested on: COLO 205 colon
DLD-1 colon = tested on: DLD-1 colon
DMS 114 small cell lung = tested on: DMS 114 small cell lung
DMS 273 small cell lung = tested on: DMS 273 small cell lung
EKVX NSCLC = tested on: EKVX NSCLC
HCC-2998 colon = tested on: HCC-2998 colon
HCT-116 colon = tested on: HCT-116 colon
HCT-15 colon = tested on: HCT-15 colon
HL-60(TB) leukemia = tested on: HL-60(TB) leukemia
HOP-18 NSCLC = tested on: HOP-18 NSCLC
HOP-62 NSCLC = tested on: HOP-62 NSCLC
HOP-92 NSCLC = tested on: HOP-92 NSCLC
HT29 colon = tested on: HT29 colon
IGROV1 ovarian = tested on: IGROV1 ovarian
K-562 leukemia = tested on: K-562 leukemia
KM12 colon = tested on: KM12 colon
KM20L2 colon = tested on: KM20L2 colon
LOX IMVI melanoma = tested on: LOX IMVI melanoma
LXFL 529 NSCLC = tested on: LXFL 529 NSCLC
M14 melanoma = tested on: M14 melanoma
M19-MEL melanoma = tested on: M19-MEL melanoma
MALME-3M melanoma = tested on: MALME-3M melanoma
MOLT-4 leukemia = tested on: MOLT-4 leukemia
NCI-H226 lung = tested on: NCI-H226 lung
NCI-H23 lung = tested on: NCI-H23 lung
NCI-H460 lung = tested on: NCI-H460 lung
NCI-H522 lung = tested on: NCI-H522 lung
OVCAR-3 ovarian = tested on: OVCAR-3 ovarian
OVCAR-4 ovarian = tested on: OVCAR-4 ovarian
OVCAR-5 ovarian = tested on: OVCAR-5 ovarian
OVCAR-8 ovarian = tested on: OVCAR-8 ovarian
RPMI-8226 leukemia = tested on: RPMI-8226 leukemia
SF-268 CNS = tested on: SF-268 CNS
SF-295 CNS = tested on: SF-295 CNS
SF-539 CNS = tested on: SF-539 CNS
SK-MEL-2 melanoma = tested on: SK-MEL-2 melanoma
SK-MEL-28 melanoma = tested on: SK-MEL-28 melanoma
SK-MEL-5 melanoma = tested on: SK-MEL-5 melanoma
SK-OV-3 ovarian = tested on: SK-OV-3 ovarian
SN12C renal = tested on: SN12C renal
SNB-19 CNS = tested on: SNB-19 CNS
SNB-75 CNS = tested on: SNB-75 CNS
SNB-78 CNS = tested on: SNB-78 CNS
SR leukemia = tested on: SR leukemia
SW-620 colon = tested on: SW-620 colon
TK-10 renal = tested on: TK-10 renal
U251 CNS = tested on: U251 CNS
UACC-257 melanoma = tested on: UACC-257 melanoma
UACC-62 melanoma = tested on: UACC-62 melanoma
XF 498 CNS = tested on: XF 498 CNS
RXF 393 renal = tested on: RXF 393 renal
UO-31 renal = tested on: UO-31 renal

## Cc1cc(O)c(C=O)c(C)c1CCC1(C)C=Cc2cc(O)ccc2O1 (stereo not given)
786-0 renal
  TGI: > 100 µM
A498 renal
  TGI: > 100 µM
A549 NSCLC
  TGI: > 100 µM
ACHN renal
  TGI: 38.6 µM
CAKI-1 renal
  TGI: 37.1 µM
CCRF-CEM leukemia
  TGI: 48.8 µM
COLO 205 colon
  TGI: 30.4 µM
DLD-1 colon
  TGI: 38 µM
DMS 114 small cell lung
  TGI: 44.7 µM
DMS 273 small cell lung
  TGI: 46.4 µM
EKVX NSCLC
  TGI: 94.4 µM
HCC-2998 colon
  TGI: 79.2 µM
HCT-116 colon
  TGI: 30.9 µM
HCT-15 colon
  TGI: 55.1 µM
HL-60(TB) leukemia
  TGI: 60.3 µM
HOP-18 NSCLC
  TGI: 60.5 µM
HOP-62 NSCLC
  TGI: 43.2 µM
HOP-92 NSCLC
  TGI: 57.9 µM
HT29 colon
  TGI: 82.2 µM
IGROV1 ovarian
  TGI: > 100 µM
K-562 leukemia
  TGI: 67.9 µM
KM12 colon
  TGI: > 100 µM
KM20L2 colon
  TGI: 57.4 µM
LOX IMVI melanoma
  TGI: 40.3 µM
LXFL 529 NSCLC
  TGI: 29.8 µM
M14 melanoma
  TGI: 35 µM
M19-MEL melanoma
  TGI: > 100 µM
MALME-3M melanoma
  TGI: 71.4 µM
MOLT-4 leukemia
  TGI: 50.5 µM
NCI-H226 lung
  TGI: > 100 µM
NCI-H23 lung
  TGI: 43.9 µM
NCI-H460 lung
  TGI: 52.5 µM
NCI-H522 lung
  TGI: 28.2 µM
OVCAR-3 ovarian
  TGI: 56.3 µM
OVCAR-4 ovarian
  TGI: 67 µM
OVCAR-5 ovarian
  TGI: 79.1 µM
OVCAR-8 ovarian
  TGI: 31.4 µM
RPMI-8226 leukemia
  TGI: 56.1 µM
SF-268 CNS
  TGI: > 100 µM
SF-295 CNS
  TGI: 67.6 µM
SF-539 CNS
  TGI: 38.9 µM
SK-MEL-2 melanoma
  TGI: 53.9 µM
SK-MEL-28 melanoma
  TGI: 54 µM
SK-MEL-5 melanoma
  TGI: 71.2 µM
SK-OV-3 ovarian
  TGI: 85.6 µM
SN12C renal
  TGI: > 100 µM
SNB-19 CNS
  TGI: > 100 µM
SNB-75 CNS
  TGI: 94.1 µM
SNB-78 CNS
  TGI: 86.4 µM
SR leukemia
  TGI: > 100 µM
SW-620 colon
  TGI: 45 µM
TK-10 renal
  TGI: > 100 µM
U251 CNS
  TGI: 48.8 µM
UACC-257 melanoma
  TGI: 53.7 µM
UACC-62 melanoma
  TGI: 43 µM
XF 498 CNS
  TGI: 52.7 µM

## CCCCCCCCCCn1cccc1/C=C/c1ccc(/C=C/c2cccn2CCCCCCCCCC)cc1
786-0 renal
  TGI: > 100 µM
A498 renal
  TGI: > 100 µM
A549 NSCLC
  TGI: > 100 µM
ACHN renal
  TGI: > 100 µM
CAKI-1 renal
  TGI: > 100 µM
CCRF-CEM leukemia
  TGI: > 100 µM
COLO 205 colon
  TGI: > 100 µM
DLD-1 colon
  TGI: > 100 µM
DMS 114 small cell lung
  TGI: > 100 µM
DMS 273 small cell lung
  TGI: > 100 µM
EKVX NSCLC
  TGI: > 100 µM
HCC-2998 colon
  TGI: > 100 µM
HCT-116 colon
  TGI: > 100 µM
HL-60(TB) leukemia
  TGI: > 100 µM
HOP-18 NSCLC
  TGI: > 100 µM
HOP-62 NSCLC
  TGI: > 100 µM
HOP-92 NSCLC
  TGI: > 100 µM
HT29 colon
  TGI: > 100 µM
IGROV1 ovarian
  TGI: > 100 µM
K-562 leukemia
  TGI: > 100 µM
KM12 colon
  TGI: > 100 µM
KM20L2 colon
  TGI: > 100 µM
LOX IMVI melanoma
  TGI: > 100 µM
LXFL 529 NSCLC
  TGI: > 100 µM
M14 melanoma
  TGI: > 100 µM
M19-MEL melanoma
  TGI: > 100 µM
MALME-3M melanoma
  TGI: > 100 µM
NCI-H226 lung
  TGI: > 100 µM
NCI-H23 lung
  TGI: > 100 µM
NCI-H460 lung
  TGI: > 100 µM
NCI-H522 lung
  TGI: > 100 µM
OVCAR-3 ovarian
  TGI: > 100 µM
OVCAR-4 ovarian
  TGI: > 100 µM
OVCAR-5 ovarian
  TGI: > 100 µM
OVCAR-8 ovarian
  TGI: > 100 µM
RPMI-8226 leukemia
  TGI: > 100 µM
RXF 393 renal
  TGI: > 100 µM
SF-268 CNS
  TGI: > 100 µM
SF-295 CNS
  TGI: > 100 µM
SF-539 CNS
  TGI: > 100 µM
SK-MEL-28 melanoma
  TGI: > 100 µM
SK-MEL-5 melanoma
  TGI: > 100 µM
SK-OV-3 ovarian
  TGI: > 100 µM
SN12C renal
  TGI: > 100 µM
SNB-19 CNS
  TGI: > 100 µM
SNB-75 CNS
  TGI: > 100 µM
SNB-78 CNS
  TGI: > 100 µM
SW-620 colon
  TGI: > 100 µM
TK-10 renal
  TGI: > 100 µM
U251 CNS
  TGI: > 100 µM
UACC-257 melanoma
  TGI: > 100 µM
UACC-62 melanoma
  TGI: > 100 µM
UO-31 renal
  TGI: > 100 µM
XF 498 CNS
  TGI: > 100 µM

## CCc1cccc(C)c1NC(=O)CC(=O)NNC(N)=S
786-0 renal
  TGI: > 100 µM
A549 NSCLC
  TGI: > 100 µM
ACHN renal
  TGI: > 100 µM
CAKI-1 renal
  TGI: > 100 µM
CCRF-CEM leukemia
  TGI: > 100 µM
COLO 205 colon
  TGI: > 100 µM
DLD-1 colon
  TGI: > 100 µM
DMS 114 small cell lung
  TGI: > 100 µM
DMS 273 small cell lung
  TGI: > 100 µM
EKVX NSCLC
  TGI: > 100 µM
HCC-2998 colon
  TGI: > 100 µM
HCT-15 colon
  TGI: > 100 µM
HL-60(TB) leukemia
  TGI: > 100 µM
HOP-18 NSCLC
  TGI: > 100 µM
HOP-62 NSCLC
  TGI: > 100 µM
HOP-92 NSCLC
  TGI: > 100 µM
HT29 colon
  TGI: > 100 µM
K-562 leukemia
  TGI: > 100 µM
KM12 colon
  TGI: > 100 µM
KM20L2 colon
  TGI: > 100 µM
LOX IMVI melanoma
  TGI: > 100 µM
LXFL 529 NSCLC
  TGI: > 100 µM
M14 melanoma
  TGI: > 100 µM
MALME-3M melanoma
  TGI: > 100 µM
MOLT-4 leukemia
  TGI: > 100 µM
NCI-H226 lung
  TGI: > 100 µM
NCI-H23 lung
  TGI: > 100 µM
NCI-H460 lung
  TGI: > 100 µM
NCI-H522 lung
  TGI: > 100 µM
OVCAR-3 ovarian
  TGI: > 100 µM
OVCAR-4 ovarian
  TGI: > 100 µM
OVCAR-5 ovarian
  TGI: > 100 µM
OVCAR-8 ovarian
  TGI: > 100 µM
RPMI-8226 leukemia
  TGI: > 100 µM
RXF 393 renal
  TGI: > 100 µM
SF-268 CNS
  TGI: > 100 µM
SF-295 CNS
  TGI: > 100 µM
SK-MEL-28 melanoma
  TGI: > 100 µM
SK-MEL-5 melanoma
  TGI: > 100 µM
SK-OV-3 ovarian
  TGI: > 100 µM
SN12C renal
  TGI: > 100 µM
SNB-19 CNS
  TGI: > 100 µM
SNB-75 CNS
  TGI: > 100 µM
SNB-78 CNS
  TGI: > 100 µM
SW-620 colon
  TGI: > 100 µM
TK-10 renal
  TGI: > 100 µM
U251 CNS
  TGI: > 100 µM
UACC-257 melanoma
  TGI: > 100 µM
UO-31 renal
  TGI: > 100 µM
XF 498 CNS
  TGI: > 100 µM
